IC50 and Ratio data for 15 compounds are collected here from US11254686B1 (Corvus Pharmaceuticals, Inc., priority 2017, dated 2022).

Holding throughout (assay type): biochemical
The target in one experiment is adenosine A1 receptor (Homo sapiens (Human), UniProt P30542). Kind of experiment: Adenosine receptor activity assay (Table 1), A1 cAMP. How it is done:
(§1) Table 1. Compounds (e.g., Adenosine Receptor modulators) and activity assay results. The legend is as follows: A=<10 nM; B=10-50 nM; C=50-100 nM; D=100-500; and E=>500 nM. The ratio corresponds to the A2A activity to the A2B activity; or A2A/A2B.

The target of the next experiment is adenosine A2B receptor (Homo sapiens (Human), UniProt P29275). The experiment can be described thus: Adenosine receptor activity assay (Table 1), A2B activity. The settings on record: for Ratio: A2A activity to the A2B activity, A2A/A2B; for IC50: read-out: Ave A2B cAMP IC50.
Chain of adenosine A2B receptor (P29275 whole entry): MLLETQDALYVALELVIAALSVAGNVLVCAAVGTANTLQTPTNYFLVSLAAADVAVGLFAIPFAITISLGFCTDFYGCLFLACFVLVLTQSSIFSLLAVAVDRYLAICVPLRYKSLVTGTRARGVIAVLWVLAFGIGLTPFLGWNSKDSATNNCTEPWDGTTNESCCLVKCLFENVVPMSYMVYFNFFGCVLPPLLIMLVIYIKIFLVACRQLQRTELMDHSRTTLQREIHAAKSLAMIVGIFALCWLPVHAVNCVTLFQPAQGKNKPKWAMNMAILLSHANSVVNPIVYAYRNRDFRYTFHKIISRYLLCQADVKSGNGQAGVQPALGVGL
A further experiment has as its target adenosine A3 receptor (Homo sapiens (Human), UniProt P0DMS8). The experiment can be described thus: Adenosine receptor activity assay (Table 1), A3 cAMP. How it is done:
as §1

The target of a further experiment is adenosine A2A receptor (Homo sapiens (Human), UniProt P29274). The experiment can be described thus: Adenosine receptor activity assay (Table 1), A2A activity. The settings on record: read-out: Ave A2A cAMP IC50.
Chain of adenosine A2A receptor (P29274 whole entry): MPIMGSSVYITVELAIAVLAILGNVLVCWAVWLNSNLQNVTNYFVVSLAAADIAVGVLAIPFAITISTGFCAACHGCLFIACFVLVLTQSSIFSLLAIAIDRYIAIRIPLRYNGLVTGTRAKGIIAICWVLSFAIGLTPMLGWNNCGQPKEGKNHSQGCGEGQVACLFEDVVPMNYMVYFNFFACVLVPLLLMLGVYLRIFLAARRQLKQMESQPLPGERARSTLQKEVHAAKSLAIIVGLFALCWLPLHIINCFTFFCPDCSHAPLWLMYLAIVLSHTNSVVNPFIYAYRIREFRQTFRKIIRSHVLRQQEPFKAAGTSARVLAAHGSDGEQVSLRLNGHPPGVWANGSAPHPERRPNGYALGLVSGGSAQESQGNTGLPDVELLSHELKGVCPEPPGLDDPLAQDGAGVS

Chain of adenosine A3 receptor (P0DMS8 whole entry): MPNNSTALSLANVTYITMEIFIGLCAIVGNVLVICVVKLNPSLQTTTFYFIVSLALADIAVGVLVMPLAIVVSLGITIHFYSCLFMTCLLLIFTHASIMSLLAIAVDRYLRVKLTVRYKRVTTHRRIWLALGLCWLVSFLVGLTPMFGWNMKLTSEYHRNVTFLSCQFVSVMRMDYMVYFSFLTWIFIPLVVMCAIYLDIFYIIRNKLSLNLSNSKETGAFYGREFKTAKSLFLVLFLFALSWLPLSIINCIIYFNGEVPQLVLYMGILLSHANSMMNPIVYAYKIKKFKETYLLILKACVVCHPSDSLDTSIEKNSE
Chain of adenosine A1 receptor (P30542 whole entry): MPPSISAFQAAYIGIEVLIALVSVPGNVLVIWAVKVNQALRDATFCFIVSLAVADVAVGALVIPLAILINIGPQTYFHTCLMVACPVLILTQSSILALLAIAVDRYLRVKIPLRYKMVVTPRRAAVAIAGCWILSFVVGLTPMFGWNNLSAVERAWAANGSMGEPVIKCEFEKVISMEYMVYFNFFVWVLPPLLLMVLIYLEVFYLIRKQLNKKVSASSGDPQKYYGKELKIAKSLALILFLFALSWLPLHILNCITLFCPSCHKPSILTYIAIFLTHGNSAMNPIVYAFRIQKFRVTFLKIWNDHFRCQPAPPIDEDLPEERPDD

Turning to `CN[C@H]1CCN(C(=O)c2nc(N[C@@H](C)c3cncc(F)c3)nc3cc(C)sc23)C1` [Example Z561, (2-(((S)-1-(5-Fluoropyridin-3-yl)ethyl)amino)-6-methylthieno[3,2-d]pyrimidin-4-yl)((S)-3-(methylamino)pyrrolidin-1-yl)methanone], the IC50 – broadly, the point on the concentration scale where inhibition reaches its midpoint – on adenosine A1 receptor is > 500 nM; at adenosine A2B receptor, 50 to 100 nM; on adenosine A3 receptor, > 500 nM; on adenosine A2A receptor, > 500 nM. For the same compound, the Ratio on adenosine A2B receptor worked out at 140.19.
Regarding `C[C@H](Nc1nc(C(=O)N2CC(NC(=O)C3CCOC3)C2)c2sccc2n1)c1cncc(F)c1` (stereo partly drawn) [Example Z519, N-(1-(2-(((S)-1-(5-Fluoropyridin-3-yl)ethyl)amino)thieno[3,2-d]pyrimidine-4-carbonyl)azetidin-3-yl)tetrahydrofuran-3-carboxamide], the IC50 on adenosine A1 receptor is > 500 nM; on adenosine A2B receptor, < 10 nM; against adenosine A3 receptor, > 500 nM; on adenosine A2A receptor it was 10 to 50 nM. Besides, the Ratio on adenosine A2B receptor is 3.87.
In the case of `Cc1cc2nc(N[C@@H](C)c3cncc(F)c3)nc(C(=O)N3CC(CNC(=O)CC(C)(C)C)C3)c2s1` [Example Z586, (S)—N-((1-(2-((1-(5-Fluoropyridin-3-yl)ethyl)amino)-6-methylthieno[3,2-d]pyrimidine-4-carbonyl)azetidin-3-yl)methyl)-3,3-dimethylbutanamide], the IC50 on adenosine A1 receptor is > 500 nM; at adenosine A2B receptor it was 10 to 50 nM; against adenosine A3 receptor it was > 500 nM; on adenosine A2A receptor it was 50 to 100 nM. Moreover, the Ratio at adenosine A2B receptor came out at 2.27.
Take `COc1ccc(CCCNC(=O)c2nc(N[C@@H](C)c3cncc(F)c3)nc3ccsc23)cc1` [Example Z422, (S)-2-((1-(5-Fluoropyridin-3-yl)ethyl)amino)-N-(3-(4-methoxyphenyl)propyl)thieno[3,2-d]pyrimidine-4-carboxamide]: the IC50 against adenosine A1 receptor was > 500 nM; at adenosine A2B receptor, 10 to 50 nM; against adenosine A3 receptor it was > 500 nM; on adenosine A2A receptor, 100 to 500 nM. On adenosine A2B receptor, the Ratio was found to be 7.52.
Take `Cc1cc2nc(N[C@@H](C)c3cncc(F)c3)nc(C(=O)N3CC(NC(=O)C4CCCO4)C3)c2s1` (stereo partly drawn) [Example Z541, N-(1-(2-(((S)-1-(5-Fluoropyridin-3-yl)ethyl)amino)-6-methylthieno[3,2-d]pyrimidine-4-carbonyl)azetidin-3-yl)tetrahydrofuran-2-carboxamide]: the half-inhibitory concentration (IC50) against adenosine A1 receptor fell in the range of 100 to 500 nM; on adenosine A2B receptor, 10 to 50 nM; against adenosine A3 receptor, 100 to 500 nM; at adenosine A2A receptor, 10 to 50 nM. Further, the Ratio on adenosine A2B receptor came to 1.64.
`C[C@H](Nc1nc(C(=O)NCCc2ccc(O)cc2)c2sccc2n1)c1ccccn1` [Example Z410, (S)—N-(4-Hydroxyphenethyl)-2-((1-(pyridin-2-yl)ethyl)amino)thieno[3,2-d]pyrimidine-4-carboxamide]: the IC50 against adenosine A1 receptor is > 500 nM; at adenosine A2B receptor, < 10 nM; against adenosine A3 receptor, > 500 nM; on adenosine A2A receptor it was 100 to 500 nM. Further, at adenosine A2B receptor, the Ratio worked out at 69.41.
For the compound `CC(C)C(=O)NCC1CN(C(=O)c2nc(N[C@@H](C)c3cncc(F)c3)nc3ccsc23)C1` [Example Z578, (S)—N-((1-(2-((1-(5-Fluoropyridin-3-yl)ethyl)amino)thieno[3,2-d]pyrimidine-4-carbonyl)azetidin-3-yl)methyl)isobutyramide], the IC50 at adenosine A1 receptor was > 500 nM; on adenosine A2B receptor it was 10 to 50 nM; on adenosine A3 receptor, > 500 nM; at adenosine A2A receptor it was 50 to 100 nM. In addition, on adenosine A2B receptor, the Ratio stood at 4.95.
`Cc1cc2nc(N[C@@H](C)c3cncc(F)c3)nc(C(=O)N3CC(NC(=O)CNC(=O)c4ccccc4)C3)c2s1` [Example Z512, (S)—N-(2-((1-(2-((1-(5-Fluoropyridin-3-yl)ethyl)amino)-6-methylthieno[3,2-d]pyrimidine-4-carbonyl)azetidin-3-yl)amino)-2-oxoethyl)benzamide]: the IC50 was > 500 nM against adenosine A1 receptor, 10 to 50 nM on adenosine A2B receptor, > 500 nM on adenosine A3 receptor and > 500 nM at adenosine A2A receptor. The Ratio on adenosine A2B receptor was 33.02.
Take `Cc1cc2nc(N[C@@H](C)c3cncc(F)c3)nc(C(=O)NCCC3CN(C)C3)c2s1` [Example Z535, (S)-2-((1-(5-Fluoropyridin-3-yl)ethyl)amino)-6-methyl-N-(2-(1-methylazetidin-3-yl)ethyl)thieno[3,2-d]pyrimidine-4-carboxamide]: the IC50 against adenosine A1 receptor is > 500 nM; on adenosine A2B receptor, 10 to 50 nM; against adenosine A3 receptor, > 500 nM; on adenosine A2A receptor, > 500 nM. The Ratio at adenosine A2B receptor turned out to be 244.67.
Take `C[C@H](Nc1nc(C(=O)N2CC(NC(=O)CC(C)(C)C)C2)c2sccc2n1)c1cncc(F)c1` [Example Z557, (S)—N-(1-(2-((1-(5-Fluoropyridin-3-yl)ethyl)amino)thieno[3,2-d]pyrimidine-4-carbonyl)azetidin-3-yl)-3,3-dimethylbutanamide]: the IC50 on adenosine A1 receptor was > 500 nM; at adenosine A2B receptor, 10 to 50 nM; against adenosine A3 receptor it was > 500 nM; at adenosine A2A receptor, 10 to 50 nM. Also, the Ratio at adenosine A2B receptor was found to be 1.92.
Regarding `Cc1csc2c(C(=O)N3CCCC3)nc(N[C@@H](C)c3ccccn3)nc12` [Example Z459, (S)-(7-methyl-2-((1-(pyridin-2-yl)ethyl)amino)thieno[3,2-d]pyrimidin-4-yl)(pyrrolidin-1-yl)methanone], the IC50 is > 500 nM at adenosine A1 receptor, 10 to 50 nM at adenosine A2B receptor, > 500 nM on adenosine A3 receptor and 10 to 50 nM on adenosine A2A receptor. Further, at adenosine A2B receptor, the Ratio turned out to be 2.40.
For `CC(=O)NC1CN(C(=O)c2nc(N[C@@H](C)c3cncc(F)c3)nc3cc(C)sc23)C1` [Example Z543, (S)—N-(1-(2-((1-(5-Fluoropyridin-3-yl)ethyl)amino)-6-methylthieno[3,2-d]pyrimidine-4-carbonyl)azetidin-3-yl)acetamide], the IC50 is > 500 nM against adenosine A1 receptor, > 500 nM against adenosine A3 receptor and 100 to 500 nM at adenosine A2A receptor. Moreover, the Ratio at adenosine A2B receptor came out at 18.71.
`CC(=O)N(C)C1CN(C(=O)c2nc(N[C@@H](C)c3cncc(F)c3)nc3cc(C)sc23)C1` [Example Z509, (S)—N-(1-(2-((1-(5-Fluoropyridin-3-yl)ethyl)amino)-6-methylthieno[3,2-d]pyrimidine-4-carbonyl)azetidin-3-yl)-N-methylacetamide]: the IC50 at adenosine A1 receptor was > 500 nM; at adenosine A2B receptor, < 10 nM; at adenosine A3 receptor, > 500 nM; at adenosine A2A receptor it was > 500 nM. At adenosine A2B receptor, the Ratio stood at 80.91.
Consider `Cc1cc2nc(N[C@@H](C)c3cncc(F)c3)nc(C(=O)N3CC(NC(=O)OCC(C)(C)C)C3)c2s1` [Example Z591, Neopentyl (S)-(1-(2-((1-(5-fluoropyridin-3-yl)ethyl)amino)-6-methylthieno[3,2-d]pyrimidine-4-carbonyl)azetidin-3-yl)carbamate], for which the IC50 is > 500 nM at adenosine A1 receptor, 10 to 50 nM at adenosine A2B receptor, 10 to 50 nM against adenosine A3 receptor and < 10 nM at adenosine A2A receptor. In addition, the Ratio at adenosine A2B receptor is 0.14.
With `Cc1cc2nc(N[C@@H](C)c3cncc(F)c3)nc(C(=O)N3CC(N4CCCC4)C3)c2s1` [Example Z540, (S)-(2-((1-(5-Fluoropyridin-3-yl)ethyl)amino)-6-methylthieno[3,2-d]pyrimidin-4-yl)(3-(pyrrolidin-1-yl)azetidin-1-yl)methanone], the IC50 was > 500 nM against adenosine A1 receptor, 10 to 50 nM on adenosine A2B receptor, > 500 nM against adenosine A3 receptor and 100 to 500 nM at adenosine A2A receptor. For the same compound, the Ratio at adenosine A2B receptor was found to be 33.20.
